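Each compound was tested at five concentrations against cells in 96-well plates for 48 hours. The concentration for 50% growth inhibition is given as GI50.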 Active and inactive are the calls of the source. Rule as the data show it: active = GI50 up to about 1.1 µM and inactive = higher.
Legend:
Assay in all cases: growth of human tumour cells (NCI), 48 h
SNB-75 = test system: SNB-75
T47D = test system: T47D
NCI-H522 = test system: NCI-H522
SK-MEL-28 = test system: SK-MEL-28
SW-620 = test system: SW-620
MDA-MB-435 = test system: MDA-MB-435
M14 = test system: M14
HCT-116 = test system: HCT-116
A498 = test system: A498
MCF7 = test system: MCF7
HOP-62 = test system: HOP-62
Hs-578T = test system: Hs-578T
CAKI-1 = test system: CAKI-1
RXF 393 = test system: RXF 393
RPMI-8226 = test system: RPMI-8226
KM12 = test system: KM12
SNB-19 = test system: SNB-19
SK-MEL-5 = test system: SK-MEL-5
MDA-MB-231 = test system: MDA-MB-231
MDA-N = test system: MDA-N
U-251 = test system: U-251
UACC-257 = test system: UACC-257
Malme-3M = test system: Malme-3M
HT-29 = test system: HT-29
SF-295 = test system: SF-295
NCI-H460 = test system: NCI-H460
NCI-H226 = test system: NCI-H226
EKVX = test system: EKVX
786-0 = test system: 786-0
OVCAR-5 = test system: OVCAR-5
UACC-62 = test system: UACC-62
SK-MEL-2 = test system: SK-MEL-2
NCI/ADR-RES = test system: NCI/ADR-RES
DU-145 = test system: DU-145
CCRF-CEM = test system: CCRF-CEM
PC-3 = test system: PC-3
SF-268 = test system: SF-268
OVCAR-8 = test system: OVCAR-8
SR = test system: SR
BT-549 = test system: BT-549
LOX IMVI = test system: LOX IMVI
OVCAR-4 = test system: OVCAR-4
SN12C = test system: SN12C
HCT-15 = test system: HCT-15
A549 = test system: A549
UO-31 = test system: UO-31
K562 = test system: K562
HOP-92 = test system: HOP-92
IGROV-1 = test system: IGROV-1
NCI-H23 = test system: NCI-H23
SF-539 = test system: SF-539
COLO 205 = test system: COLO 205
MOLT-4 = test system: MOLT-4
OVCAR-3 = test system: OVCAR-3
TK-10 = test system: TK-10
ACHN = test system: ACHN
HL-60 = test system: HL-60
SK-OV-3 = test system: SK-OV-3

For `O=C(O)c1nnsc1-c1csnn1`, the GI50 (SNB-75) was > 100 µM (inactive), the GI50 (T47D) was > 100 µM (inactive) and the GI50 (NCI-H522) was > 100 µM (inactive). For the same compound, the GI50 (SK-MEL-28) was > 100 µM (inactive), the GI50 (SW-620) was > 100 µM (inactive) and the GI50 (MDA-MB-435) was > 100 µM (inactive). The GI50 (M14) was > 100 µM (inactive), the GI50 (HCT-116) was > 100 µM (inactive) and the GI50 (A498) was > 100 µM (inactive). The GI50 (MCF7) was > 100 µM (inactive), the GI50 (HOP-62) was > 100 µM (inactive) and the GI50 (Hs-578T) was > 100 µM (inactive). For the same compound, the GI50 (CAKI-1) was > 100 µM (inactive), the GI50 (RXF 393) was > 100 µM (inactive) and the GI50 (RPMI-8226) was > 100 µM (inactive). The GI50 (KM12) was > 100 µM (inactive), the GI50 (SNB-19) was > 100 µM (inactive) and the GI50 (SK-MEL-5) was > 100 µM (inactive). The GI50 (MDA-MB-231) was > 100 µM (inactive), the GI50 (MDA-N) was > 100 µM (inactive) and the GI50 (U-251) was > 100 µM (inactive). The GI50 (UACC-257) was > 100 µM (inactive), the GI50 (Malme-3M) was > 100 µM (inactive) and the GI50 (HT-29) was > 100 µM (inactive). For the same compound, the GI50 (SF-295) was > 100 µM (inactive), the GI50 (NCI-H460) was > 100 µM (inactive) and the GI50 (NCI-H226) was > 100 µM (inactive). For the same compound, the GI50 (EKVX) was > 100 µM (inactive), the GI50 (786-0) was > 100 µM (inactive) and the GI50 (OVCAR-5) was > 100 µM (inactive). The GI50 (UACC-62) was > 100 µM (inactive), the GI50 (SK-MEL-2) was > 100 µM (inactive) and the GI50 (NCI/ADR-RES) was > 100 µM (inactive). For the same compound, the GI50 (DU-145) was > 100 µM (inactive), the GI50 (CCRF-CEM) was > 100 µM (inactive) and the GI50 (PC-3) was > 100 µM (inactive). For the same compound, the GI50 (SF-268) was > 100 µM (inactive), the GI50 (OVCAR-8) was > 100 µM (inactive) and the GI50 (SR) was 54.6 µM (inactive). The GI50 (BT-549) was > 100 µM (inactive), the GI50 (LOX IMVI) was > 100 µM (inactive) and the GI50 (OVCAR-4) was > 100 µM (inactive). The GI50 (SN12C) was > 100 µM (inactive), the GI50 (HCT-15) was greater than 100 µM and the GI50 (A549) was > 100 µM (inactive). For the same compound, the GI50 (UO-31) was > 100 µM (inactive), the GI50 (K562) was > 100 µM (inactive) and the GI50 (HOP-92) was > 100 µM (inactive). For the same compound, the GI50 (IGROV-1) was > 100 µM (inactive), the GI50 (NCI-H23) was > 100 µM (inactive) and the GI50 (SF-539) was > 100 µM (inactive). For the same compound, the GI50 (COLO 205) was > 100 µM (inactive), the GI50 (MOLT-4) was > 100 µM (inactive) and the GI50 (OVCAR-3) was > 100 µM (inactive). The GI50 (TK-10) was 74.8 µM (inactive), the GI50 (ACHN) was > 100 µM (inactive) and the GI50 (HL-60) was > 100 µM (inactive). The GI50 (SK-OV-3) was > 100 µM (inactive).

From ChEMBL document CHEMBL1201862, “PubChem BioAssay data set” (2004)
